Tests used:
Set-up in all cases: key: “+” = active; “−” = inactive; “pr” = promoting
Aβ (1-40) = target: T1, Aβ (1-40) (Homo sapiens, UniProt P05067); experiment: thioflavin T fluorescent assay (ThT assay) for fibrillogenesis; type: biochemical; conditions: Aβ (1-40) 20 μM, 5 μM Thioflavin T, pH 7.40, 37° C.; inhibition of fibrillogenesis
T1 construct: Aβ peptide: Aβ (1-40) 95% purity (American Peptide Company, Inc, Sunnyvale, Calif. USA); purchased American Peptide Company, Inc, Sunnyvale, Calif; USA
Excerpt: Test compounds were purchased from commercial sources or synthesized and screened by thioflavin T fluorescent assay (“ThT assay”). Alternatively, one could screen test compounds by circular dichroism (“CD”), electron microscopy (“EM”), or mass spectroscopy (“MS”) assays. The MS assay gives data on the ability of compounds to bind to an amyloid protein, whereas the ThT, EM, and CD assays give data on inhibition of fibrillogenesis. The thioflavin T fluorescent assay for fibrillogenesis is based on the principle that the fluorescent dye, thioflavin T, binds specifically to fibrillar, but not to unaggregate Aβ peptide (LeVine III, H., 1993, Protein Science 2:404-410). Upon binding, thioflavin T develops a characteristic fluorescence (Naiki, H., et al., 1996, Lab. Invest. 74: 374-383) which can be easily detected. The dye is believed to interact with the stacked cross-β pleated sheets, the common structural motif of all amyloid (LeVine III, H., 1995, Amyloid: Int. J. Exp. Clin Invest. 2:1.6). Thioflavin T is widely used to assay the effect of compounds on fibrillogenesis of Aβ peptide and other amyloid proteins (Bronfman, P. C., et al., 1995, Neuroscience Lett. 218:201-203). In this assay, test compounds are incubated with a solution of Aβ (1-40) (20 μM) or IAPP (10 μM) containing 5 μM Thioflavin T, in 0.02M Tris/0.02M acetate/0.15M NaCl/0.005% azide/pH 7.40 at 37° C. in sealed 384 well microplates. Readings (ex 430 nm/em 485 nm) are taken at various time intervals with a microplate fluorescence reader. An increase in fluorescence signifies the appearance of amyloid or intermediates in the production of amyloid, as illustrated in the Figures (in general, a compound which inhibits fibrillogenesis produces lower fluorescence in the assay because the fluorescence of ThT is greater when bound to fibrils). Protocol: Aβ peptide: Aβ (1-40) 95% purity (American Peptide Company, Inc, Sunnyvale, Calif. USA) is disaggregated in trifluoroacetic acid and filtered through a […] filter, (Whatman Anotop 25 plus, 0.02 μm, Catalogue no. 6809 4102) in hexafluoroisopropanol (HFIP). Solutions of Aβ (1-40) or IAPP at 600 μm in HFIP are stored at −80° C. Assay mixture: The mixture is prepared as two solutions which are combined upon addition to the 384 well microplate (Corning Costar cat. 3705). i) Solution A consists of test compounds in 0.02M Tris/0.02M acetate/0.15M NaCl/0.01% azide at pH 7.40 or buffer alone (control), ii) Solution B consists of Aβ (1-40) 40 μM or IAPP 20 μM, Thioflavin T […] in 0.02M Tris/0.02M acetate/0.15M NaCl at pH 7.40. This solution is prepared by drying the Aβ peptide under nitrogen and then resuspending this in 0.04M Tris base with 15 minutes sonication. An equal volume of 0.04M acetic acid containing 0.3 M NaCl is added and the solution is adjusted to 7.40±0.02. A small volume of 20 mM Thioflavin T is added to the solution to give a final 5 μM concentration of Thioflavin T. iii) The microplate is loaded with 40 μL of solution A followed by 40 μL of solution B which gives a final 20 μM Aβ (1-40) or 10 μM IAPP, 5 μM Thioflavin T, and a given concentration of test compound in 0.02M Tris/0.02M acetate/0.15M NaCl/0.005% azide, pH 7.40. The plate is sealed and loaded into the microplate fluorescence reader. Fluorescence measurement data analysis: The HTS-7000 Bio Assay Reader, Perkin Elmer, is used to perform kinetic runs of about 1 day. Readings were taken at 15 minute intervals, with one minute shaking before each read. Bandpass filters used were: excitation 430 nm, emission […].

Aβ40 = target: T2, Aβ40 (Homo sapiens, UniProt P05067); experiment: mass spectroscopy (MS) assay, binding to Aβ; conditions: 200 μM test compound, 20 μM solubilized Aβ40, pH 7.4; ability to bind to Aβ
T2 construct: 200 μM of a test compound and 20 μM of solubilized Aβ40
Procedure: Test compounds were purchased from commercial sources or synthesized and screened by thioflavin T fluorescent assay (“ThT assay”). Alternatively, one could screen test compounds by circular dichroism (“CD”), electron microscopy (“EM”), or mass spectroscopy (“MS”) assays.
And in the mass spectroscopy (“MS”) assay, samples were prepared as aqueous solutions containing 20% ethanol, 200 μM of a test compound and 20 μM of solubilized Aβ40. The pH value of each sample was adjusted to 7.4 (±0.2) by addition of 0.1% aqueous sodium hydroxide. The solutions were then analyzed by electrospray ionization mass spectroscopy using a Waters ZQ 4000 mass spectrometer. Samples were introduced by direct infusion at a flow-rate of 25 μL/min within 2 hr. after sample preparation. The source temperature was kept at 70° C. and the cone voltage was 20 V for all the analysis. Data were processed using Masslynx 3.5 software.

Aβ [1] = target: T3, Aβ (Homo sapiens, UniProt P05067); experiment: circular dichroism (CD) assay, inhibition of fibrillogenesis; type: biochemical; conditions: soluble Aβ, 37° C., 190-240 nm
T3 construct: Aβ peptide: Aβ (1-40) 95% purity (American Peptide Company, Inc, Sunnyvale, Calif. USA)
Excerpt: (§1) Test compounds were purchased from commercial sources or synthesized and screened by thioflavin T fluorescent assay (“ThT assay”). Alternatively, one could screen test compounds by circular dichroism (“CD”), electron microscopy (“EM”), or mass spectroscopy (“MS”) assays. The MS assay gives data on the ability of compounds to bind to an amyloid protein, whereas the ThT, EM, and CD assays give data on inhibition of fibrillogenesis.
In the circular dichroism (“CD”) assay, samples were transferred to 0.1-cm path-length quartz cuvettes and CD scans were taken using a Jasco J-715 spectropolarimeter. Readings were taken at 37° C., between 190 and 240 nm, with a resolution of 0.1 nm and a bandwidth of 1 nm. […]

Aβ [2] = target: T3, Aβ; experiment: electron microscopy (EM) assay, inhibition of fibrillogenesis; type: biochemical; conditions: soluble Aβ
Excerpt: as §1
Similarly, in the electron microscopy (“EM”) assay, each sample was sonicated for 1 min to disrupt large clumps before testing. The sample (5-μL aliquot) was placed on freshly cleaved mica and allowed to air dry. The mica was placed in a Balzers High-vacuum, Freeze-Etch Unit (model 301), shadowed with platinum (30° angle), and coated with a carbon film. The replica was removed from the mica by flotation and transferred onto a 300-mesh copper grid. Samples were examined using a Joel 2000 FX transmission electron microscope. […]

T3 sequence (P05067 672-711 limits assumed): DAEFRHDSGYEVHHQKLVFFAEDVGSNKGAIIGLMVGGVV
T2 sequence (P05067 672-711 limits assumed): as above
T1 sequence (P05067 672-711 limits assumed): as above

Row | SMILES | ThT Assay (Aβ (1-40)) | MS Assay (Aβ40) | CD (Aβ [1]) | EM (Aβ [2])
1 | N=C(N)c1ccc(OCCCCOc2ccc(C(=N)N)cc2)cc1 [Compound 5] | + | + |  | 
2 | N=C(N)c1ccc(OCOc2ccc(C(=N)N)cc2)cc1 [Compound 9] | + | + | + | −
3 | N=C(N)c1ccc(OCc2cccc(COc3ccc(C(=N)N)cc3)c2)cc1 [Compound 24] | + | + |  | +
4 | c1cc(COc2ccc(C3=NCCN3)cc2)cc(COc2ccc(C3=NCCN3)cc2)c1 [Compound 25] | + |  |  | +
5 | N=C(N)c1ccc(OCc2ccc(COc3ccc(C(=N)N)cc3)cc2)cc1 [Compound 26] | + |  |  | −
6 | c1cc(COc2ccc(C3=NCCN3)cc2)ccc1COc1ccc(C2=NCCN2)cc1 [Compound 27] | pr |  |  | 
7 | N=C(N)c1ccc(-c2cc3ccc(C(=N)N)cc3[nH]2)cc1 [Compound 28] | + |  | + | +

More lines, now with the values ahead:

Row | ThT Assay (Aβ (1-40)) | MS Assay (Aβ40) | CD (Aβ [1]) | EM (Aβ [2]) | SMILES
8 | + | + |  | − | N=C(N)c1ccc(OCCC(O)COc2ccc(C(=N)N)cc2)cc1 (stereo not shown) [Compound 31]
9 | + | + |  | − | c1cc(C2=NCCN2)ccc1OCCOCCOc1ccc(C2=NCCN2)cc1 [Compound 35]
10 | + | + |  |  | N=C(N)CCCOc1ccc(C(=N)N)cc1 [Compound 41]
11 | − |  | − | − | Cl.N=C(N)c1ccccc1 [Compound 46]
12 |  | + | + | − | N=C(Nc1ccc(OCCCCCOc2ccc(NC(=N)c3ccccc3)cc2)cc1)c1ccccc1 [Compound 134]

— patent US20040147531A1, “Amidine derivatives for treating amyloidosis” (priority 2001, published 2004)
